Assay results published in patent publication EP4653444A1, “FUSED TRICYCLIC COMPOUND AS KINASE INHIBITOR” (Hangzhou Innogate Pharma Co., Ltd., priority 2023, dated 2024).
Like-named read-outs stand apart in the source and are kept apart here.

Columns and labels:
ULK1 kinase = target: T1, ULK1 kinase (Homo sapiens, UniProt O75385); assay: ULK kinase activity inhibition assay (ADP-Glo); assay type: biochemical
T1 sequence (O75385 1-1050): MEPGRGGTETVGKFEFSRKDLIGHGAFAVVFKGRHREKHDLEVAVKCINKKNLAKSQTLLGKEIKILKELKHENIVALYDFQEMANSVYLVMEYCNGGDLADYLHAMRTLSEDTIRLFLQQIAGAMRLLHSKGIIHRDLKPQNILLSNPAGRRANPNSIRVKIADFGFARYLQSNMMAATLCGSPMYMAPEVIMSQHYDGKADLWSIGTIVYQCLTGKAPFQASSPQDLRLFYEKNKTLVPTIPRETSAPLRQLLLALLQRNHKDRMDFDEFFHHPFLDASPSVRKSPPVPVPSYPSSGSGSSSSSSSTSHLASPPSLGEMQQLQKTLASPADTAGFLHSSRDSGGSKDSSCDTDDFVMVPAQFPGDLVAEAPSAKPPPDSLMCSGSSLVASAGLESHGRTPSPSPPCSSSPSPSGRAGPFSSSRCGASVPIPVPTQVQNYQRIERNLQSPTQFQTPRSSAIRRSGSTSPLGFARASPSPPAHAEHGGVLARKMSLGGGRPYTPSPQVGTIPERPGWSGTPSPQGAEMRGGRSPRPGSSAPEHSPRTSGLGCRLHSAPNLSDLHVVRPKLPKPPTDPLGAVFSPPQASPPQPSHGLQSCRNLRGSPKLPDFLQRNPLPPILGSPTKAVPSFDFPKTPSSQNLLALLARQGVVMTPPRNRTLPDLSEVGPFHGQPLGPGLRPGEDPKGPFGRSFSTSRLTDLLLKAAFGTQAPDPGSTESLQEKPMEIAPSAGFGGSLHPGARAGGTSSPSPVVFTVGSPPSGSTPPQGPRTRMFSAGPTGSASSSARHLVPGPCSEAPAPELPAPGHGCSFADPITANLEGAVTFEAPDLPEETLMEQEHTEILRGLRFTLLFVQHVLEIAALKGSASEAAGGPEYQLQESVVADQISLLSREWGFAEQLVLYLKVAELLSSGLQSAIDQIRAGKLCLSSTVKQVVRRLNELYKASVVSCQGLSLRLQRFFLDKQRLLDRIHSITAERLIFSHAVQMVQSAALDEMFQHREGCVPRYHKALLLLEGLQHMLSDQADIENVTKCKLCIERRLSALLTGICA
Experimental: (§1) The ADP-Glo method was used to evaluate the inhibitory activity of the compounds against ULK1 and ULK2 kinases. Prepare 1× kinase reaction buffer (final working concentrations: HEPES 50 mM, MgCl2 10 mM, Brij35 0.01%, EGTA 1 mM, DTT 2 mM). Prepare 2× kinase and […] substrate solutions: ULK1 kinase at 0.5 nM; substrate mix containing ATP at 100 µM and MBP at 0.1 mg/mL. ULK2 kinase at 0.15 nM; substrate mix containing ATP at 6 µM and MBP at 0.1 mg/mL. Compounds were serially diluted in DMSO and shaken on a shaker for 20 minutes. Prepare 2× kinase using 1× kinase reaction buffer. Transfer 20 nL of compound into a 384-well plate. Add 2 µL of kinase to each well of the reaction plate. Seal the plate with sealing film, centrifuge at 1000 rpm for 60 seconds, and incubate at 25°C for 10 minutes. Prepare 2× ATP & MBP mixture using 1× kinase reaction buffer and add 2 µL to each well. Seal the plate, centrifuge at 1000 rpm for 60 seconds, and incubate at 25°C for 60 minutes. Add 4 µL ADP-Glo reagent to the 384-well plate, centrifuge at 1000 rpm for 1 minute, and incubate at 25°C for 40 minutes. Then, add 8 µL Detection Reagent, centrifuge at 1000 rpm for 1 minute, and incubate at 25°C for 40 minutes. Read the RLU (Relative Luminescence Unit) signal using a BMG plate reader to indicate kinase activity. Inhibition rate was calculated as: % Inhibition = 100% - [(Compound - Positive Control)/(Negative Control - Positive Control)] × 100%. IC50 values (half-maximal inhibitory concentration) were calculated by nonlinear regression using GraphPad Prism 7.0. Y = Bottom + (Top - Bottom)/(1 + 10^((LogIC50 - X) × Hill Slope)), where X is the log of compound concentration and Y is the % inhibition.

ULK2 kinase = target: T2, ULK2 kinase (Homo sapiens, UniProt Q8IYT8); assay: ULK kinase activity inhibition assay (ADP-Glo); assay type: biochemical
T2 sequence (Q8IYT8 1-1036): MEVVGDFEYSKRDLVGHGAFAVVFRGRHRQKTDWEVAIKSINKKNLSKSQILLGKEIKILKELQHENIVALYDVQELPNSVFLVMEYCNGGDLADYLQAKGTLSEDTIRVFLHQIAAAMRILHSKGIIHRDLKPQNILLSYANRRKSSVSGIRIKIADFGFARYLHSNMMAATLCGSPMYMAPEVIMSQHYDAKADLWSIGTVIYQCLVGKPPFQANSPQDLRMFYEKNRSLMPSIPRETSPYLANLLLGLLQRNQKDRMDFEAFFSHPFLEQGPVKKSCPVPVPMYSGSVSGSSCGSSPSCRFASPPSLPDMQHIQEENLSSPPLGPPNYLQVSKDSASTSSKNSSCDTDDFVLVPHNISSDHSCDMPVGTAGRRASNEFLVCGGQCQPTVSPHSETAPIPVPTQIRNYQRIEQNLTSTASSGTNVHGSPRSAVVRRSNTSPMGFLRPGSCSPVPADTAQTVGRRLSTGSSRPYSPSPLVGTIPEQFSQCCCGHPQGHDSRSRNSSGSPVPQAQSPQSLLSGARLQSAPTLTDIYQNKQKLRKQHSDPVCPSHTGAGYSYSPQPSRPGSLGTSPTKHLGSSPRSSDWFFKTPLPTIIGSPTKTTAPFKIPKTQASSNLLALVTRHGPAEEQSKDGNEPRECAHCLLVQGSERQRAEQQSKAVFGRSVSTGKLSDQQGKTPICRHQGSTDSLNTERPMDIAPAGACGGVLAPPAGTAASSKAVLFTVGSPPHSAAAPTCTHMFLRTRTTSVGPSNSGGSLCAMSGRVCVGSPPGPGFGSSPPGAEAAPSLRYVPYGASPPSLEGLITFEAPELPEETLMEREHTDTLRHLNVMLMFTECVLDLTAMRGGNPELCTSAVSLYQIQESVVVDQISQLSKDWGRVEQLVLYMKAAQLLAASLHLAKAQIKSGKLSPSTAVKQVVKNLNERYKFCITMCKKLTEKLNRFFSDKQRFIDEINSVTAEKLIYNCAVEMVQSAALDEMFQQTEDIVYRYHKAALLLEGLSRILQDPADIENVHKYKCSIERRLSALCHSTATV
Experimental: as §1

[1] = Pharmacokinetic study in rats; conditions: rat, plasma, po, 3 mg/kg
Experimental: Pharmacokinetic parameters were calculated by statistical moment method using WinNonLin 8.0 software, mainly including Tmax, T1/2, Cmax and AUC0-24h.
Animals: Three male SD rats weighing 200-220 g were used. After purchase, they were housed in the laboratory animal center for 2 days before experiment. […] Blood samples were collected at scheduled time points after oral gavage.
Vehicle: 0.4% ethanol + 0.4% Tween 80 + 99.2% (0.5% methylcellulose M450). Preparation of oral gavage solution: The compound was accurately weighed and dissolved in vehicle by ultrasonication for 5 min at room temperature to prepare 0.3 mg/mL drug solution.
Single compound administration was also used to study pharmacokinetics in rats.
Blood sample collection: After oral gavage, blood samples were collected from orbital sinus at 0.25, 0.5, 1, 2, 4, 8, 10 and 24 h. 50 µL plasma was mixed with 200 µL acetonitrile (containing 2 ng/mL verapamil as internal standard). The mixture was vortexed for 3 min, then centrifuged at 20000 rcf for 10 min at 4 °C. The supernatant was analyzed by LC-MS/MS.
Standard curves were established by accurately weighing and preparing compounds at different concentrations for mass spectrometric quantification. Compound concentrations in plasma samples were determined based on standard curves to obtain concentration-time profiles. All measurement data were collected and processed by relevant software. Pharmacokinetic parameters (including Tmax, T1/2, Cmax and AUC0-24h) were calculated by statistical moment method.

FAK kinase = FAK kinase (Homo sapiens, UniProt Q05397); assay: FAK kinase activity inhibition assay, method A (HTRF); assay type: biochemical
FAK kinase, sequence (Q05397 whole entry): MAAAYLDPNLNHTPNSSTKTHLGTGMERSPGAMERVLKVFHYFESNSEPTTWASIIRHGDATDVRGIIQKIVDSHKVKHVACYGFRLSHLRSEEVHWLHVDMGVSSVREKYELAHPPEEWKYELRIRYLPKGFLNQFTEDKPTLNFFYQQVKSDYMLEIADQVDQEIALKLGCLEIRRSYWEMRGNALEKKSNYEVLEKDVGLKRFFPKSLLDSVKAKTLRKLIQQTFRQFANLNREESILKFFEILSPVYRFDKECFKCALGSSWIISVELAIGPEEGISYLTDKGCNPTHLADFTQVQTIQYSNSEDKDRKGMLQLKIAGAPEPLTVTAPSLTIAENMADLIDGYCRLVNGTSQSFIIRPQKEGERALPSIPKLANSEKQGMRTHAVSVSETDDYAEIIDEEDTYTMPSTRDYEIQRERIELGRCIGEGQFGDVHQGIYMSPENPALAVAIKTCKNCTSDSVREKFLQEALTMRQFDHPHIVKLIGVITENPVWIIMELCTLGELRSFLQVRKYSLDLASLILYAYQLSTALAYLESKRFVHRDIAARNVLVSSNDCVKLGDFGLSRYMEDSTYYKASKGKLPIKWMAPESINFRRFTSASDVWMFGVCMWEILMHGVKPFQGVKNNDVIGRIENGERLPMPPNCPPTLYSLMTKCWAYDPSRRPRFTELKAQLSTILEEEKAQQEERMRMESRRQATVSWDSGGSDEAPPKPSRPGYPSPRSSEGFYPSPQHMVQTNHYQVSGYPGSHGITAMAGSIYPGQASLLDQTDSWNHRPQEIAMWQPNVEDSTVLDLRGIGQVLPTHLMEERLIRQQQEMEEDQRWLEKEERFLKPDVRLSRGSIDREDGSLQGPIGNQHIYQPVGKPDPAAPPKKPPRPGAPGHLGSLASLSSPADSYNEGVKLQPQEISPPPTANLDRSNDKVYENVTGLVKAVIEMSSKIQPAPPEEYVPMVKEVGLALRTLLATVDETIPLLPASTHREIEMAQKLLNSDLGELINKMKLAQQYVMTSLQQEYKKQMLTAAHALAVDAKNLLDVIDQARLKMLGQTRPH
Experimental: The HTRF method was used to evaluate the inhibitory activity of the compounds against FAK kinase. […]. The reaction conditions were: FAK kinase at 0.1 ng/µL; ATP 10 µM; substrate concentration 1 µM. Compounds were serially diluted in DMSO and shaken on a shaker for 20 minutes. Prepare 2× kinase using 1× reaction buffer. Transfer 25 nL compound to a 384-well plate using Echo 655. Add 2.5 µL kinase per well. Seal the plate with sealing film, centrifuge at 1000 rpm for 60 seconds, and incubate at 25°C for 12 hours. Prepare 2× ATP/substrate mix using 1× enzyme reaction buffer and add 2.5 µL 2× ATP/substrate mix per well. Seal the plate with sealing film, centrifuge at 1000 rpm for 60 seconds, and incubate at 25°C for 50 minutes. Prepare 2×XL665 & antibody solution using HTRF detection buffer, and add 5 µL per well. Incubate at 25°C for 60 minutes. Read fluorescence at 620 nm (Cryptate) and 665 nm (XL665). Calculate the ratio per well (Ratio_665/620 nm). % Inhibition = 100% - [(Compound Ratio - Positive Control Ratio)/ (Negative Control Ratio - Positive Control Ratio)] × 100%. IC50 values (half-maximal inhibitory concentration) were calculated by nonlinear regression using GraphPad Prism 7.0. Y = Bottom + (Top - Bottom)/ (1 + 10^ ((LogIC50 - X) × Hill Slope)), where X is the log of compound concentration and Y is the % inhibition.

[2] = ADP-Glo, ATP 100 µM, read-out: ULK1 (IC50)
[3] = ADP-Glo, ATP 6 µM, read-out: ULK2 (IC50)

| SMILES | IC50 (ULK1 kinase) | IC50 (ULK2 kinase) | AUC(0-t) at 24 h [1] | Cmax [1] | Tmax [1] | half-life [1] | IC50 (ULK1 kinase; [2]) | IC50 (ULK2 kinase; [3]) | IC50 (FAK kinase) | IC50 (FAK kinase; Table 2, HTRF, ATP 10 µM, read-out: FAK (method A) (IC50)) |
| --- | --- | --- | --- | --- | --- | --- | --- | --- | --- | --- |
| CCc1cc2c(cc1Nc1ncc(C(F)(F)F)c(NCCCN3CCCCC3=O)n1)OC[C@H]1CN(C3CCOCC3)CCN21 [Compound A7R] | < 3 nM | < 1 nM |  |  |  |  |  |  |  |  |
| CCc1cc2c(cc1Nc1ncc(C(F)(F)F)c(NCCCN3CCOCCC3=O)n1)OC[C@H]1CN(C3CCOCC3)CCN21 [Compound A3R] | < 3 nM | < 1 nM | 1040 ng·h/mL | 223 ng/mL | 1.2 h | 84 min |  |  |  |  |
| CCc1cc2c(cc1Nc1ncc(C(F)(F)F)c(NCCCN3CCOCCC3=O)n1)OC[C@H]1CN(C)CCN21 [Compound A1R] |  |  | 326 ng·h/mL | 74.2 ng/mL | 1.2 h | 90 min | < 3 nM | < 1 nM |  |  |
| CCc1cc2c(cc1Nc1ncc(C(F)(F)F)c(NCCCN3CCOCCC3=O)n1)OC[C@H]1CN(C3CCN(C)CC3)CCN21 [Compound A2R] | < 3 nM | < 5 nM | 1940 ng·h/mL | 149 ng/mL | 8 h | 528 min |  |  |  |  |
| CCc1cc2c(cc1Nc1ncc(C(F)(F)F)c(NCCCN3CCCCC3=O)n1)OC[C@H]1CN(C3CCN(C)CC3)CCN21 [Compound A6R] | < 3 nM | < 5 nM | 1080 ng·h/mL | 77.3 ng/mL | 6.7 h | 498 min |  |  |  |  |
| CCc1cc2c(cc1Nc1ncc(C(F)(F)F)c(NCCCN3CCCCC3=O)n1)OC[C@H]1CNCCN21 [Compound A5R] |  |  |  |  |  |  | < 1 nM | < 1 nM |  |  |
| CCc1cc2c(cc1Nc1ncc(C(F)(F)F)c(NCCCN3CCOCCC3=O)n1)OC[C@H]1CNCCN21 [Compound A4R] |  |  | 880 ng·h/mL | 217 ng/mL | 1.2 h | 126 min | < 1 nM | < 1 nM |  |  |
| CCN1CCN2c3cc(OC)c(Nc4ncc(C(F)(F)F)c(CCc5ccccc5CC(N)=O)n4)cc3OC[C@H]2C1 [Compound B5R] |  |  | 685 ng·h/mL | 118 ng/mL | 2 h | 168 min |  |  | < 0.5 nM |  |
| COc1cc2c(cc1Nc1ncc(C(F)(F)F)c(CCc3ccccc3CC(N)=O)n1)OC[C@H]1CN(C3CC3)CCN21 [Compound B6R] |  |  | 905 ng·h/mL | 299 ng/mL | 1 h | 78 min |  |  | < 1 nM |  |
| CCc1cc2c(cc1Nc1ncc(C(F)(F)F)c(NCCCN3CCCCC3=O)n1)OC[C@H]1CN(C)CCN21 [Compound A8R] |  |  | 685 ng·h/mL | 222 ng/mL | 0.8 h | 60 min | < 1 nM | < 1 nM |  |  |
| COc1cc2c(cc1Nc1ncc(C(F)(F)F)c(CCc3ccccc3CC(N)=O)n1)OC[C@H]1CN(C)CCN21 [Compound B1R] |  |  | 2330 ng·h/mL | 387 ng/mL | 2.7 h | 174 min |  |  |  | < 0.5 nM |
| COc1cc2c(cc1Nc1ncc(C(F)(F)F)c(CCc3ccccc3CC(N)=O)n1)OC[C@H]1CN(C3CN(C)C3)CCN21 [Compound B9R] |  |  | 368 ng·h/mL | 61.8 ng/mL | 3.3 h | 156 min |  |  | < 0.5 nM |  |
| COc1cc2c(cc1Nc1ncc(C(F)(F)F)c(CCc3ccccc3CC(N)=O)n1)OC[C@H]1CN(S(C)(=O)=O)CCN21 [Compound B8R] |  |  | 133 ng·h/mL | 39.3 ng/mL | 1.7 h | 90 min |  |  | < 0.5 nM |  |
